The record followed here is ChEMBL document CHEMBL3132769, “Fragment growing to retain or alter the selectivity of anchored kinase hinge-binding fragments” (Medchemcomm, 2014).

The structures appear in SMILES notation.

For assay [1], the target named is T1, Mitogen-activated protein kinase 13 (Homo sapiens) (UniProt O15264).
T1 sequence (whole entry): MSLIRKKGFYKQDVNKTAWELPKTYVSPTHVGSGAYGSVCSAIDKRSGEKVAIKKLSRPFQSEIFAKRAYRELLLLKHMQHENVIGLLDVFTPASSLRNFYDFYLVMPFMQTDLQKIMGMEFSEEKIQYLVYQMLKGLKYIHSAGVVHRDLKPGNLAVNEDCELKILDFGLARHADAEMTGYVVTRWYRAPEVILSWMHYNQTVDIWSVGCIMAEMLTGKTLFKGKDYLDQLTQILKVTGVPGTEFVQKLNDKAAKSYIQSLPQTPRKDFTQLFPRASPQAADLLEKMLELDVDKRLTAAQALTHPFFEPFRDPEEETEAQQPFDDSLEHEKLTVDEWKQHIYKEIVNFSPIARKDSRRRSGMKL
Briefly: Inhibition of human full length p38 delta expressed in Escherichia coli cell assessed as substrate phosphorylation using fluorescence-labelled peptides as substrate at 8 uM after 90 mins by microfluidic peptide phosphorylation assay.

The target in assay [2] is Mitogen-activated protein kinase kinase kinase kinase 4 (Homo sapiens) (UniProt O95819). Briefly: Inhibition of human HGK catalytic domain expressed in baculovirus assessed as substrate phosphorylation using fluorescence-labelled peptides as substrate at 8 uM after 90 mins by microfluidic peptide phosphorylation assay.
The target in assay [3] is Protein kinase C beta type (Homo sapiens) (UniProt P05771). Briefly: Inhibition of human truncated PKC beta1 expressed in baculovirus assessed as substrate phosphorylation using fluorescence-labelled peptides as substrate at 420 uM after 90 mins by microfluidic peptide phosphorylation assay.
The target of assay [4] is Ribosomal protein S6 kinase alpha-5 (Homo sapiens) (UniProt O75582). Briefly: Inhibition of human full length MSK1 expressed in baculovirus assessed as substrate phosphorylation using fluorescence-labelled peptides as substrate at 420 uM after 90 mins by microfluidic peptide phosphorylation assay.
Assay [5] deals with Mitogen-activated protein kinase 3 (Homo sapiens) (UniProt P27361). Put plainly: Inhibition of human full length ERK1 expressed in Escherichia coli cell assessed as substrate phosphorylation using fluorescence-labelled peptides as substrate at 420 uM after 90 mins by microfluidic peptide phosphorylation assay.
The target of assay [6] is Fibroblast growth factor receptor 4 (Homo sapiens) (UniProt P22455). Put plainly: Inhibition of human FGFR4 catalytic domain expressed in baculovirus assessed as substrate phosphorylation using fluorescence-labelled peptides as substrate at 9 uM after 90 mins by microfluidic peptide phosphorylation assay.
For assay [7], the target named is T2, Testis-specific serine/threonine-protein kinase 2 (Homo sapiens) (UniProt Q96PF2).
T2 sequence (whole entry): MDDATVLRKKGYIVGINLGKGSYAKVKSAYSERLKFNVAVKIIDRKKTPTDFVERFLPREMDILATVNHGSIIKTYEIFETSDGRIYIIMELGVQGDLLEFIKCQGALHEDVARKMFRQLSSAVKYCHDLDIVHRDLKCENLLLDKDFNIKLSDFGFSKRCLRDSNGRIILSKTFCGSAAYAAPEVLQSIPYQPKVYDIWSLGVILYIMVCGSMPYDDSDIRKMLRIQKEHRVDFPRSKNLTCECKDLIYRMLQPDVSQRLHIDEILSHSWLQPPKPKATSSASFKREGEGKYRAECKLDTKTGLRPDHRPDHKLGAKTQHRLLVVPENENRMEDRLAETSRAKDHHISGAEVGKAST
Briefly: Inhibition of human full length TSSK2 expressed in baculovirus assessed as substrate phosphorylation using fluorescence-labelled peptides as substrate at 2 uM after 90 mins by microfluidic peptide phosphorylation assay.

The test system of assay [8] is Tyrosine-protein kinase ABL1 (Homo sapiens), P00519 [T315I]. Put plainly: Inhibition of human truncated ABL T315I mutant expressed in baculovirus assessed as substrate phosphorylation using fluorescence-labelled peptides as substrate at 2 uM after 90 mins by microfluidic peptide phosphorylation assay.
The target of assay [9] is Ribosomal protein S6 kinase alpha-3 (Homo sapiens) (UniProt P51812). Put plainly: Inhibition of human full length RSK2 expressed in baculovirus assessed as substrate phosphorylation using fluorescence-labelled peptides as substrate at 1000 uM after 90 mins by microfluidic peptide phosphorylation assay.
Assay [10] deals with T3, Receptor-type tyrosine-protein kinase FLT3 (Homo sapiens), P36888 [D835Y].
T3 sequence (whole entry): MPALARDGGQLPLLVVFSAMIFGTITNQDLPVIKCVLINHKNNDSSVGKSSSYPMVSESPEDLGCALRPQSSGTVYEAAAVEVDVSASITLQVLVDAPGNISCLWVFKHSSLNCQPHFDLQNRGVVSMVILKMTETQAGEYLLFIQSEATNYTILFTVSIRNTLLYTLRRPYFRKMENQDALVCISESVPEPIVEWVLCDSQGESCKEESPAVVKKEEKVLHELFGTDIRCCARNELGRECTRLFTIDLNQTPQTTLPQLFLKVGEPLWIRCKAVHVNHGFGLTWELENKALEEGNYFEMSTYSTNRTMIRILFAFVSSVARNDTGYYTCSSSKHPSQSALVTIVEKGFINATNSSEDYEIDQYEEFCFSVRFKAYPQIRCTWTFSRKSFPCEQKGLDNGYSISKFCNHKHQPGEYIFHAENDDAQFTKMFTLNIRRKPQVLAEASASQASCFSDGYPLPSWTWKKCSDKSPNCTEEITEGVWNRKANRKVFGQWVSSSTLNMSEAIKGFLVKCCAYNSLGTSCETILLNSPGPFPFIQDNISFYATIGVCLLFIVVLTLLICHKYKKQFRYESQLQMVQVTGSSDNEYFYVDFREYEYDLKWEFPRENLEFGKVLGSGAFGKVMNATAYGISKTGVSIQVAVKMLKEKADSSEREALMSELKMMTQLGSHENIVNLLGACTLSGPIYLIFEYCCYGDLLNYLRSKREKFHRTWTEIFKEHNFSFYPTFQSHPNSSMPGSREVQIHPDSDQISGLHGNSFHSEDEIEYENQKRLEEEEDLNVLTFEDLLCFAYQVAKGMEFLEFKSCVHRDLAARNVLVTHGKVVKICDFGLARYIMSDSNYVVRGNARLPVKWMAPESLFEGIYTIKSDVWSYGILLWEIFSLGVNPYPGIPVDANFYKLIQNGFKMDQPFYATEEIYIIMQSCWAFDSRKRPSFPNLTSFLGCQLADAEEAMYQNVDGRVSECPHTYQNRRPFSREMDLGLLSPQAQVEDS
Put plainly: Inhibition of human FLT3 D835Y mutant catalytic domain expressed in baculovirus assessed as substrate phosphorylation using fluorescence-labelled peptides as substrate at […] after 90 mins by microfluidic peptide phosphorylation assay.

For assay [11], the target named is MAP kinase-activated protein kinase 3 (Homo sapiens) (UniProt Q16644). Briefly: Inhibition of human full length MAPKAPK3 expressed in Escherichia coli cell assessed as substrate phosphorylation using fluorescence-labelled peptides as substrate at […] after 90 mins by microfluidic peptide phosphorylation assay.
The target in assay [12] is Serine/threonine-protein kinase MARK1 (Homo sapiens) (UniProt Q9P0L2). Put plainly: Inhibition of human full length MARK1 expressed in baculovirus assessed as substrate phosphorylation using fluorescence-labelled peptides as substrate at […] after 90 mins by microfluidic peptide phosphorylation assay.
Chain of Serine/threonine-protein kinase MARK1 (Homo sapiens) (Q9P0L2 whole entry, looked up): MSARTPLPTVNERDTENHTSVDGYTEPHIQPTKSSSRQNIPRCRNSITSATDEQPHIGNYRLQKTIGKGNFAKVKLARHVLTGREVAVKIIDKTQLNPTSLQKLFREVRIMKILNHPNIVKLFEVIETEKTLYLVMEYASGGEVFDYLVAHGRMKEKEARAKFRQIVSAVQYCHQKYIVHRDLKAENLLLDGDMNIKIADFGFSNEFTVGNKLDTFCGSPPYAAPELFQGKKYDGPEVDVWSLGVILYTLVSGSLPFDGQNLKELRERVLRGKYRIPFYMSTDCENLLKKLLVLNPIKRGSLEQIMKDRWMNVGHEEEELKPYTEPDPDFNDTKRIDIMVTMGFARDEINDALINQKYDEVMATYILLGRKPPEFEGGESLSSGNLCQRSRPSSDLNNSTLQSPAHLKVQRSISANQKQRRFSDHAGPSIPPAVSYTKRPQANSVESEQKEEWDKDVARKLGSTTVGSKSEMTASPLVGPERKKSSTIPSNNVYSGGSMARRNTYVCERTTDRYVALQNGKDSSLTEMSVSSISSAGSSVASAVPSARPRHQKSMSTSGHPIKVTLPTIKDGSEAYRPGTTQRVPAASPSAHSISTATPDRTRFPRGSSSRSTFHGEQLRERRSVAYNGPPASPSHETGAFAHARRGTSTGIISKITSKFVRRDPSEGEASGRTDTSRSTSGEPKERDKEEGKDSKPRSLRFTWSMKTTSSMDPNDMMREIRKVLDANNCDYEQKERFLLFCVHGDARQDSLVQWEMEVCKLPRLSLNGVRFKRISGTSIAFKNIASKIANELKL

Chain of Protein kinase C beta type (Homo sapiens) (P05771 2-671 limits assumed): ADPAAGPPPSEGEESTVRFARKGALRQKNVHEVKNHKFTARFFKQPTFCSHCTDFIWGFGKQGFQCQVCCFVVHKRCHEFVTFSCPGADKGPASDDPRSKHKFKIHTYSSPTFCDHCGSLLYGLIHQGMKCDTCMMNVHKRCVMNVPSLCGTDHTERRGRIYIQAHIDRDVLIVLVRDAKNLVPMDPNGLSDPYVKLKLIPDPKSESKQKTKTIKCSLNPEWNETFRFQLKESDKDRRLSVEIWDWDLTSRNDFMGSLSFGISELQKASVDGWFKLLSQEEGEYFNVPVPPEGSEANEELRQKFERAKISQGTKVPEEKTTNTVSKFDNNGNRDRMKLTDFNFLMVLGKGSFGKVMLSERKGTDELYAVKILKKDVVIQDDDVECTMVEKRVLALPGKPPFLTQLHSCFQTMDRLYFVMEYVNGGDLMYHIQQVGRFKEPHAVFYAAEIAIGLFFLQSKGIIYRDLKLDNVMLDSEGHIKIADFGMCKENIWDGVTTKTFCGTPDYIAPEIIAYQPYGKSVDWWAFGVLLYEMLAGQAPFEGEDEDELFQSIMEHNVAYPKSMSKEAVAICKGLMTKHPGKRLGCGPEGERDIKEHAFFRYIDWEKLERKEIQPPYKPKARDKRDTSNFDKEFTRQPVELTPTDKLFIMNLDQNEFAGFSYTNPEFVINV
Chain of Mitogen-activated protein kinase 3 (Homo sapiens) (P27361 whole entry, the tested form may be a part): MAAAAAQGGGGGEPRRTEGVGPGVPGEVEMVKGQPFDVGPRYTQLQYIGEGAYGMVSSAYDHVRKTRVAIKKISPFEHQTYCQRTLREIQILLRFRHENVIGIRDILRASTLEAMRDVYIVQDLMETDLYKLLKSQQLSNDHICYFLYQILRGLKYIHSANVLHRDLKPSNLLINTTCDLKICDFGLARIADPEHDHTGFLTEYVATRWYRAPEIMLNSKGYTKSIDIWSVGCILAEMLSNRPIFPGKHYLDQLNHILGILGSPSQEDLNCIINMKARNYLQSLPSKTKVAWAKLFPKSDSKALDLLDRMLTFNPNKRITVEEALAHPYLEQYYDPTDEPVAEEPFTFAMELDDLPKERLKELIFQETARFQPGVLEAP
Chain of Mitogen-activated protein kinase kinase kinase kinase 4 (Homo sapiens) (O95819 2-1239 limits assumed): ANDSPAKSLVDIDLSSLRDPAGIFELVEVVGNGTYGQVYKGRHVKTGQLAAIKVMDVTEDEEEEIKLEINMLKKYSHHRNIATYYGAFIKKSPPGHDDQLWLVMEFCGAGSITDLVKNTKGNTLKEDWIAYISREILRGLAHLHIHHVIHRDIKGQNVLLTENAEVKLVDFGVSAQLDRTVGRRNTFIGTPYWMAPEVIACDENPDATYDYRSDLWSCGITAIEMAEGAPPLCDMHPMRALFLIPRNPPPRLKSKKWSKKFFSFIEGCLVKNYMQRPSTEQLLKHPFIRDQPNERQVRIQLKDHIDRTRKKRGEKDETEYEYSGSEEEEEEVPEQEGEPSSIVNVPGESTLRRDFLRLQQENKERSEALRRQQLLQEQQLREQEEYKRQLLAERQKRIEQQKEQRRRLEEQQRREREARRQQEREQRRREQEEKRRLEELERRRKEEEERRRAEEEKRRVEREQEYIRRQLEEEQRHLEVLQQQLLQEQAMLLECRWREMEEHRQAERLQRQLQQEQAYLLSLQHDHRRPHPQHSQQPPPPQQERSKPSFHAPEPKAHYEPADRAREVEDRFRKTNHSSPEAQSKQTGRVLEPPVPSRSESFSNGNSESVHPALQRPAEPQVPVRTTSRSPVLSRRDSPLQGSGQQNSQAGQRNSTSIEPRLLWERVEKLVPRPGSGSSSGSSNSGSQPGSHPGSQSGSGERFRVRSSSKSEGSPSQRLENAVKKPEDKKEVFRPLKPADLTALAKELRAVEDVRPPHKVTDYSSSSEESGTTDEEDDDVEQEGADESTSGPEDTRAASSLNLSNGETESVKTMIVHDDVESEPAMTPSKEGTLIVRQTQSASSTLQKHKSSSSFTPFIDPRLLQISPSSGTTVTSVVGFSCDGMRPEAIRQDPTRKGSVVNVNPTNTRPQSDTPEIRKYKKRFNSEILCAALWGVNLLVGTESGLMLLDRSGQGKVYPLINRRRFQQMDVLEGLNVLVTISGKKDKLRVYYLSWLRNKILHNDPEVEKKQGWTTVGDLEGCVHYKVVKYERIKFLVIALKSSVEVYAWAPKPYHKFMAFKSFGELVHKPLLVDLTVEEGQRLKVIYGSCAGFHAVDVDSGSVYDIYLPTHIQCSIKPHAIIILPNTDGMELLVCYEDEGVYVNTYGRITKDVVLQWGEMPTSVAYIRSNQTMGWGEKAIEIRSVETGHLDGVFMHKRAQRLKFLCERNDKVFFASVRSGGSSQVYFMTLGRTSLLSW
Chain of Fibroblast growth factor receptor 4 (Homo sapiens) (P22455 22-802 limits assumed): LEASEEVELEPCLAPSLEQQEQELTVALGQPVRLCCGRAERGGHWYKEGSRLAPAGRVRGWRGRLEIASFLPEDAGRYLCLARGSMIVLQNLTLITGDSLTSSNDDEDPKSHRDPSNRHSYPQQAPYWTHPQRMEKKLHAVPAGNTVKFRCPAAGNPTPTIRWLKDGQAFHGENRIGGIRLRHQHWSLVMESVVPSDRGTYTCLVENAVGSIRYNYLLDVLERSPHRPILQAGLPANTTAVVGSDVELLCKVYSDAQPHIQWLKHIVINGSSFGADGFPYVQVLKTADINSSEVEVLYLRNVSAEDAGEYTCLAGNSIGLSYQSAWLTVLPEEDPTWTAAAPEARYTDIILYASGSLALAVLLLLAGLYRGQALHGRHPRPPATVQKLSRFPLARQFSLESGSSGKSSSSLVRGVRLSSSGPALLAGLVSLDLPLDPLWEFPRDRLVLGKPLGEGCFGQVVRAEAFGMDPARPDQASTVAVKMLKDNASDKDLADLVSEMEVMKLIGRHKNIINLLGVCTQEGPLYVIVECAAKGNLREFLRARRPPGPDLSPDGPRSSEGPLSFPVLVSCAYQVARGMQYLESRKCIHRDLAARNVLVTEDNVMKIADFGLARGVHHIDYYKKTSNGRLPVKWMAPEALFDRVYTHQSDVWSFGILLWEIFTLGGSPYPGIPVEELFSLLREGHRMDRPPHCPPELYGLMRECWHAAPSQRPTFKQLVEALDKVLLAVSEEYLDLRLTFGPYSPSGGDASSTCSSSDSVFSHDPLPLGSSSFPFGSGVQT
Chain of Ribosomal protein S6 kinase alpha-3 (Homo sapiens) (P51812 whole entry): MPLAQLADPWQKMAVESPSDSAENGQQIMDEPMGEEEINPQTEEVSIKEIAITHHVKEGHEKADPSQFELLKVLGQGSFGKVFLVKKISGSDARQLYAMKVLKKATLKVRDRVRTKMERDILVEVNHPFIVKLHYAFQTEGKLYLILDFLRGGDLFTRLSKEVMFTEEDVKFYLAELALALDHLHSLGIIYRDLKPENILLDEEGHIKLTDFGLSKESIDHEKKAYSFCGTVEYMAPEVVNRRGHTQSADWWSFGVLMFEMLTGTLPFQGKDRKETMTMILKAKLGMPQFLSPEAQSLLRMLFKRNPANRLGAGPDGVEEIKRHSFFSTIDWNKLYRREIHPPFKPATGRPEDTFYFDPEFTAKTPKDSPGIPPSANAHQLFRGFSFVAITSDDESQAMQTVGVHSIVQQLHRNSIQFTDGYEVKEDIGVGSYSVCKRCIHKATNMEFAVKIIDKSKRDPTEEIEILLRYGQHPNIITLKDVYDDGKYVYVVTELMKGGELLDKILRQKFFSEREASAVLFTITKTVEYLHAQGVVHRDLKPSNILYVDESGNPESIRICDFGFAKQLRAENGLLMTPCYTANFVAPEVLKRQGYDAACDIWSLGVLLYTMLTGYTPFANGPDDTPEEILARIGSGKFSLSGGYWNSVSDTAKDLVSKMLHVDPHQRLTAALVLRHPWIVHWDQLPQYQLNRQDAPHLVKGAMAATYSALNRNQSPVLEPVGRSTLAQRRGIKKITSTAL
Chain of MAP kinase-activated protein kinase 3 (Homo sapiens) (Q16644 whole entry, looked up): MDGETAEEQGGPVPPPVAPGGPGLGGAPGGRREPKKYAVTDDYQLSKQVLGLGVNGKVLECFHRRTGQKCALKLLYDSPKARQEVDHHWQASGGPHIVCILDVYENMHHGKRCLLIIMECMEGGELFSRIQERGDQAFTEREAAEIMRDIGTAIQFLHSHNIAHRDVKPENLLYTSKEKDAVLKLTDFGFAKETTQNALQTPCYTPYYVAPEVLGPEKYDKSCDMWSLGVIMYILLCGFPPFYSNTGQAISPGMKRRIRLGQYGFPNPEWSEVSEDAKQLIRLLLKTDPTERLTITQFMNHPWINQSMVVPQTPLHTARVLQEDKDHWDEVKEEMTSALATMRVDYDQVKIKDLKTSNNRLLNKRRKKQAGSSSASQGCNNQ

As a reminder, the inhibition is how much of the control response was suppressed. For the compound `NCC1CCN(c2ncnc3[nH]ccc23)CC1`, the results for the inhibition in assay [1] and in assay [2] were 5.5% and 11.5%, respectively.

Take `c1nc(N2CCOCC2)c2nc[nH]c2n1`: the results for the inhibition in assay [3], in [4] and in assay [5] were 70%, 78.5% and 78.5%, respectively.

For `NCC1CN(c2ncnc3[nH]c4cnccc4c23)CCO1` (configuration not stated), the inhibition in [6] came out at 0%.

With `NC1CCN(c2ncnc3[nH]ccc23)CC1`, the inhibition in assay [7] amounted to 6.5%; in assay [8] it was 1%.

Turning to `c1cnc2[nH]ccc2c1`, the inhibition in [9] is 68.5%.

Take `COC(=O)c1cnc(Nc2cnc(C#N)cn2)cc1NCC1CCNCC1`: the results for the inhibition in [10], in assay [11] and in [12] were 63%, 7% and 5%, respectively.
